Reference: paper PMC9329436, “Optimization of the 4-anilinoquin(az)oline scaffold as epidermal growth factor receptor (EGFR) inhibitors for chordoma utilizing a toxicology profiling assay platform” (Scientific Reports, 2022)

Test system: HL60 cells
Assay: AsedaSciences SYSTEMETRIC Cell Health Screen (flow cytometry toxicity profiling)
Details: HL60, 4 h, 5 nM–100 µM; for CC: Cell Cycle score / CM: Cell morphology score / CMI: Cell membrane integrity score / MMP: Mitochondrial membrane depolarization score / ROS: Reactive superoxide species score / GSH: Glutathione score / NMI1: Nuclear membrane integrity 1 score / NMI2: Nuclear membrane integrity 2 score: probability 0–1, n = 2; for CHI: Cell Health Index: probability (0–1) of high-risk class, n = 2
Text: To prioritize further optimization, in addition to cellular potency, we utilized the AsedaSciences® […]® Cell Health Screen. This live cell flow cytometry (FC) screen was developed to assess human safety risk for candidate pharmaceutical small molecules at the early hit-to-lead stage of development. The screen works by estimating the risk using a supervised machine learning (ML) classifier to assess a multiparametric cellular stress phenotype, produced by the test compound, relative to a training set of known compounds (Table S1). This screen has been designed for early pipeline risk estimation regardless of pharmaceutical class/disease type, so it uses HL60 as the reporter cell line.
The ML classifier was trained with 300 historically known compounds (on market or withdrawn drugs, research compounds, etc.), which were divided into two outcome classes based upon literature, clinical trials, and market histories where applicable. This external curation informed an outcome of “high-risk” or “low-risk”. All 300 compounds were also processed through the automated FC screen, populating each of the two classes with frequency distributions of empirical cell-based phenotypes.
To estimate human safety risk for an unknown compound, the ML classifier assesses the similarity of the test compound’s cell-based phenotype to the distributions of phenotypes in the two outcome classes. […] Phenotypes are derived from twelve FC detection parameters, including light scatter and a series of fluorescent physiological reporter dyes, that track cell stress-related endpoints.
To produce the Cell Health Index, the ML classifier uses all twelve FC parameters simultaneously in a multidimensional logistic regression model, so the CHI contains the most predictive power. In addition to the Cell Health Index, Table 4 also reports probability scores for eight cell stress-related endpoints. These scores are produced individually by passing information to the ML classifier relating to parameters that inform that endpoint. For example, to produce the cell morphology (CM) score, the ML classifier only uses the FC detection parameters for forward scatter (informing change in cell diameter) and side scatter (informing change in optical granularity of the cell) to inform the model. Together, these eight endpoints provide a “biological fingerprint”, allowing assessment of the degree to which SAR series members behave differently across endpoints.
In a 384-well platform, HL60 cells were exposed to a 10-step, 3 × dilution series of each test compound (5 nM–100 µM) for 4 h at 37 °C with 5% CO2. Each dilution series was screened in duplicate, occupying a total of 20 wells, allowing 16 test compounds to be assayed per plate. Each row contained one positive and one negative control well, for a total of 16 replicate positive/negative control pairs on each assay plate. Compound formatting, cell deposition, and dye application were performed robotically so that final assay conditions comprised 100,000 cells in a 40 µL volume. After the 4 h compound exposure, cells were immediately stained with a panel of fluorescent dyes that report physiological signatures of both mitochondrial dysfunction and gross cell stress. Fluorescence and forward/side-scatter data were collected using automated FC with no gating. FC data are processed by an automated algorithm for producing quality control measures and ML classification of compound phenotypes. • 2. HL60 cell culture production
HL60 cells were produced as suspension cultures in glass 850 cm^2 roller bottles with vented caps, at 1 RPM, 5% CO2, and 37 °C. […] Culture density was maintained at or below 1 × 10^6 cells/mL.

Structure (SMILES) | CC: Cell Cycle score | CM: Cell morphology score | CMI: Cell membrane integrity score | MMP: Mitochondrial membrane depolarization score | ROS: Reactive superoxide species score | GSH: Glutathione score | NMI1: Nuclear membrane integrity 1 score | NMI2: Nuclear membrane integrity 2 score | CHI: Cell Health Index
CCCCc1oc2ccccc2c1C(=O)c1cc(I)c(OCCN(CC)CC)c(I)c1 [Amiodarone, reference compound] | 0.96 | 0.97 | 0.80 | 0.87 | 0.19 | – | – | – | –
COc1ccc2cc3[n+](cc2c1OC)CCc1cc2c(cc1-3)OCO2 [Berberine, reference compound] | 0.99 | 0.99 | 0.050 | 1.00 | 1.00 | 0.93 | 0.99 | 0.97 | 0.82
O=C1CC2(CCCC2)CC(=O)N1CCCCN1CCN(c2ncccn2)CC1 [Buspirone, reference compound] | 0.11 | 0.060 | 0.040 | 0.020 | 0.05 | 0.080 | 0.070 | 0.040 | 0.22
Cc1ccc(-c2cc(C(F)(F)F)nn2-c2ccc(S(N)(=O)=O)cc2)cc1 [Celecoxib, reference compound] | 0.61 | 0.56 | 0.94 | 0.51 | 0.96 | 0.36 | 0.53 | 0.51 | 0.54
Clc1cccc(Cl)c1N=C1NCCN1 [Clonidine, reference compound] | 0.060 | 0.00 | 0.030 | 0.010 | 0.040 | 0.10 | 0.15 | 0.040 | 0.14
CN(C)CCOC(c1ccccc1)c1ccccc1 [Diphenhydramine, reference compound] | 0.030 | 0.010 | 0.030 | 0.030 | 0.040 | – | – | – | –
CC(C)(C(=O)O)c1ccc(C(O)CCCN2CCC(C(O)(c3ccccc3)c3ccccc3)CC2)cc1 (centres unmarked) [Fexofenadine, reference compound] | 0.020 | 0.00 | 0.040 | 0.020 | 0.16 | – | – | – | –
COc1cc2ncnc(Nc3ccc(F)c(Cl)c3)c2cc1OCCCN1CCOCC1 [Gefitinib, reference compound] | 0.93 | 1.00 | 0.99 | 0.99 | 0.93 | 0.97 | 0.61 | 0.94 | 0.80
CC(C(=O)O)c1cccc(C(=O)c2ccccc2)c1 (centres unmarked) [Ketoprofen, reference compound] | 0.050 | 0.00 | 0.030 | 0.010 | 0.18 | 0.010 | – | – | –
CS(=O)(=O)CCNCc1ccc(-c2ccc3ncnc(Nc4ccc(OCc5cccc(F)c5)c(Cl)c4)c3c2)o1 [Lapatinib, reference compound] | 0.93 | 1.00 | 1.00 | 1.00 | 0.90 | 0.96 | 0.97 | 0.92 | 0.89
CCOC(=O)N1CCC(=C2c3ccc(Cl)cc3CCc3cccnc32)CC1 [Loratadine, reference compound] | 0.84 | 0.36 | 0.70 | 0.65 | 0.85 | – | – | – | –
CCc1nn(CCCN2CCN(c3cccc(Cl)c3)CC2)c(=O)n1CCOc1ccccc1 [Nefazodone, reference compound] | 0.97 | 0.97 | 1.00 | 1.00 | 1.00 | 0.99 | 0.73 | 0.87 | 0.78
Cc1ccnc2c1NC(=O)c1cccnc1N2C1CC1 [Nevirapine, reference compound] | 0.070 | 0.020 | 0.050 | 0.010 | 0.28 | 0.030 | 0.020 | 0.040 | 0.18
CC1(C)NC(=O)N(c2ccc([N+](=O)[O-])c(C(F)(F)F)c2)C1=O [Nilutamide, reference compound] | 0.68 | 0.040 | 0.060 | 0.42 | 0.090 | 0.040 | 0.21 | 0.52 | 0.34
O=C(O)CCc1nc(-c2ccccc2)c(-c2ccccc2)o1 [Oxaprozin, reference compound] | 0.060 | 0.00 | 0.090 | 0.000 | 0.16 | 0.030 | 0.040 | 0.12 | –
[H]/N=C(/N)N/C(=N/[H])NCCc1ccccc1 [Phenformin, reference compound] | 0.28 | 0.74 | 0.27 | 0.37 | 0.77 | 0.17 | 0.82 | 0.080 | 0.41
Cc1ccc(N(CC2=NCCN2)c2cccc(O)c2)cc1 [Phentolamine, reference compound] | 0.040 | 0.00 | 0.16 | 0.29 | 0.11 | 0.17 | 0.64 | 0.79 | –
Cc1ccc(=O)n(-c2ccccc2)c1 [Pirfenidone, reference compound] | 0.060 | 0.00 | 0.090 | 0.010 | 0.020 | 0.040 | 0.040 | 0.030 | 0.17
CN1CCN(CCCN2c3ccccc3Sc3ccc(Cl)cc32)CC1 [Prochlorperazine, reference compound] | 0.96 | 1.00 | 1.00 | 1.00 | 1.00 | 1.00 | 1.00 | 0.99 | –
